From patent US20240174693A1, “SOMATOSTATIN RECEPTOR SUBTYPE 4 (SSTR4) AGONISTS AND THEIR APPLICATIONS” (Humanwell Pharmaceutical US, priority 2022, published 2024) come the findings set out here.

Data set [1] deals with T1, CYP2C19 (Homo sapiens, UniProt P33261).
T1 construct: from tissue; host or cells: liver microsomes (HLM)
Description: CYP inhibition in HLM, CYP2C19. The class given is in vitro ADME. The note with it: read-out: CYP inhibition (IC50 um) 2C19. The procedure: 0.1 M potassium phosphate buffer (K-buffer), pH 7.4 was preheated. K-buffer was prepared by mixing 9.5 mL Stock A into 40.5 mL Stock B. The total volume was brought to 500 mL with Milli-Q water. The buffer was titrated with KOH or H3PO4 to pH 7.4. Stock A (1 M monobasic potassium phosphate) was prepared by adding 136.5 g of monobasic potassium phosphate into 1 L of Milli-Q water. Stock B (1 M dibasic potassium phosphate) was prepared by adding 174.2 g of dibasic potassium phosphate in 1 L of Milli-Q water.
Serial dilution for test compound and reference inhibitors (400×) was prepared in a 96-well plate. 8 μL of 10 mM test compounds was transferred to 12 μL of ACN. Inhibitor spiking solution was prepared for CYP1A2, CYP2C9 and CYP2D6 in cocktail by adding 12 μL of 1 mM α-Naphthoflavon, 10 μL of 40 mM Sulfaphenazole, 10 μL of 10 mM Quinidine, and 8 μL of DMSO. Individual inhibitor spiking solution for CYP3A4 and CYP2C19 was prepared by adding 8 μL of DMSO stock to 12 μL of ACN. 1:3 serial dilutions were performed in DMSO:ACN mixture (v/v: 40:60).
NADPH cofactor was prepared by dissolving 66.7 mg NADPH in 10 mL 0.1 M K-buffer, pH7.4. 4×substrate (2 mL for each isoform) was prepared. HLM was added were required on ice. 0.2 mg/mL HLM solution was prepared using 10 μL of 20 mg/mL to 990 μL of 0.1 M K-buffer on ice. 400 μL of 0.2 mg/mL HLM were added to the assay wells and then 2 μL of 400×test compound set were added into the designated wells on ice. 200 μL of 0.2 mg/mL HLM was added to the assay wells and followed by 1 μL of serially diluted reference inhibtor solution into the designated wells on ice. The following solutions were added in duplicated in a 96-well plate on ice: 30 μL of 2×test compound and reference compound in 0.2 mg/mL HLM solution and 15 μL of 4×substrate solution. The 96-well assay plate and NADPH solution were pre-incubated at 37° C. for 5 minutes. 15 μL of pre-warmed 8 mM NADPH solution was added to into the assay plates to initiate the reaction. The assay plate was incubated at 37° C. 5 mins, 10 mins, and 45 mins. […]

Data set [2] is described as follows: Metabolic stability in liver microsomes (rat). The class given is in vitro ADME. The note with it: for CLint scaled at 1 μM: pH 7.4; for half-life at 1 μM: pH 7.4, read-out: Metabolic stability T½. The procedure: Buffers A-C were prepared for use in the metabolic study. The buffers were as follows: Buffer A: 1.0 L of 0.1 M monobasic Potassium Phosphate buffer containing 1.0 mM EDTA; Buffer B: 1.0 L of 0.1 M Dibasic Potassium Phosphate buffer containing 1.0 mM EDTA; and Buffer C: 0.1 M Potassium Phosphate buffer, 1.0 mM EDTA, pH 7.4 by titrating 700 mL of buffer B with buffer A while monitoring with the pH meter.
Ketanserin was used as the reference compound. Reference compound and test compound spiking solutions (500 μM spiking solution) were prepared by adding 10 μL of 10 mM DMSO stock solution into 190 μL ACN. 1.5 μL of 500 μM spiking solution (0.75 mg/mL) and 18.75 μL of 20 mg/mL liver microsomes were added into 479.75 μL of Buffer C on ice.
A 6 mM NADPH stock solution was prepared by dissolving an appropriate amount of NADPH into buffer C. 30 μL of 1.5 μM spiking solution containing 0.75 mg/mL microsomes solution was dispensed to the assay plates designated for different time points (0-, 5-, 15-, 30-, 45-min) on ice. […] All the other plates were pre-incubated at 37° C. for 5 minutes. 15 μL of 6 mM NADPH stock solution was added to the plates to start the reaction and time. At 5-min, 15-min, 30-min, and 45-min, 135 μL of ACN containing internal standard were added to the wells of corresponding plates, respectively, to stop the reaction. […]

Data set [3] concerns KM mice. As to the kind of experiment: Acetic acid induced writhing test. Type of data set: in vivo. The note with it: 30 mg/kg s.c.; for No. of writhing's: 0.6% acetic acid 15 min after dosing, 30-minute period; for Percentage of Inhibition / Significant compared to the model group: writhing. As for the experimental part: Fifteen minutes after administration, a 0.6% acetic acid solution (5 mL/kg) was injected into the abdominal cavity. The mice were then placed in an observation box, and the number of writhing episodes was recorded within a 30-minute period. The assessment of pain intensity was based on the observation of the mice's writhing behavior.
For orientation: In writhing tests, fewer writhes than in controls are read as antinociception.

Data set [4] can be described thus: Solubility. Type of data set: physicochemical. The note with it: aqueous buffer, kinetic from dmso stock; PBS(Ph 7.4), 1 hour shaking at room temperature; read-out: Solubility SolubilityU (um). The procedure:
10 μL test compound was added to 990 μL buffer. Sample tubes were shaken for 1 hour (1000 rpm) at room temperature. Samples were centrifuged for 10 minutes at 1200 rpm to precipitate un-dissolved particles. Supernatants were collected for LCMSMS or LC-UV analysis.

Data set [5] in a line: in vitro. The note with it: rat, hepatocytes.
Description: Vials with hepatocytes were removed from a liquid nitrogen storage unit and immediately placed in a 37±1° C. shaking water bath for 2 min±15 sec. The hepatocytes were poured into 50 mL of hepatocytes thawing medium, mixed gently, and centrifuged at 500 rpm for 3 minutes. After centrifugation, the supernatant was carefully aspirated without disturbing the pellet. 10× the volume of pre-warmed KHB buffer (Krebs-Henseleit buffer, Sigma Cat #K3753-10X1L) with 5.6 g/L HEPES was used to resuspend the cell pellet. The pellet mixture was centrifuged at 500 rpm for 3 minutes, aspirated, and the supernatant discarded without disturbing the cell pellet. The cell viability and yield were determined. The hepatocytes were counted, and the cell suspensions were diluted to the appropriate cell density. The viable cell density was 2×10^6 cells/mL. The hepatocyte solution was placed on ice until it was used.
Two dosing solutions of prewarmed KHB (1% DMSO) were prepared. 200 μM spiking solution was prepared by adding 20 μL of substrates stock solution (10 mM) into 980 μL of DMSO. Two dosing solutions were prepared by adding 10 μL of 200 μM spiking solution into 990 μL of KHB (2 μM after dilution). The dosing solution was centrifuged at 5594 g for 15 min (Thermo Multifuge×3R). 50 μL of pre-warmed 2×dosing solution was added to the wells designated for the different time points. […] After the addition of the hepatocytes, the timer was started. The assay was placed in an incubator at 37° C. 100 μL of ACN containing IS was added to the wells designed for 0 min, the wells were mixed gently, then 50 μL of pre-warmed hepatocytes solution (2×10^6 cells/mL) was added. The wells were sealed. […] Next, the wells were sealed. After quenching, the plates were shaken on a vibrator (IKA, MTS 2/4) for 10 min at 600 rpm. The plate was sonicated for 2 min and centrifuged at 5594 g for 15 min (Thermo Multifuge×3R). 50 μL of the supernatant was transferred from each well into a 96-well sample plate containing 50 μL of ultra pure water (Millipore, ZMQS50F01) for LC/MS analysis.
A short description of data set [6]: Thermodynamic solubility. The class given is physicochemical. The note with it: aqueous buffer, thermodynamic from solid, PBS(Ph 7.4), equilibrated over night at room temperature. As for the experimental part: Assay buffer was added into compound powder to make 4 mg/ml solution. Sample tubes were shaken for 1 hour at 1000 rpm, then equilibrated over night at room temperature. Samples were centrifuged for 10 minutes at 12000 rpm to precipitate out un-dissolved particles. Supernatants were transferred to new tubes. Concentrations of the supernatants after centrifugation were determined by LCMSMS detection.

Data set [7] deals with hERG potassium channel (Homo sapiens, UniProt Q12809). Description: in vitro. To be noted: hERG Current Inhibition Rate (%) Mean. On the technique in general: hERG is a cardiac potassium channel; its block is linked to QT prolongation.
hERG potassium channel, sequence (Q12809 whole entry): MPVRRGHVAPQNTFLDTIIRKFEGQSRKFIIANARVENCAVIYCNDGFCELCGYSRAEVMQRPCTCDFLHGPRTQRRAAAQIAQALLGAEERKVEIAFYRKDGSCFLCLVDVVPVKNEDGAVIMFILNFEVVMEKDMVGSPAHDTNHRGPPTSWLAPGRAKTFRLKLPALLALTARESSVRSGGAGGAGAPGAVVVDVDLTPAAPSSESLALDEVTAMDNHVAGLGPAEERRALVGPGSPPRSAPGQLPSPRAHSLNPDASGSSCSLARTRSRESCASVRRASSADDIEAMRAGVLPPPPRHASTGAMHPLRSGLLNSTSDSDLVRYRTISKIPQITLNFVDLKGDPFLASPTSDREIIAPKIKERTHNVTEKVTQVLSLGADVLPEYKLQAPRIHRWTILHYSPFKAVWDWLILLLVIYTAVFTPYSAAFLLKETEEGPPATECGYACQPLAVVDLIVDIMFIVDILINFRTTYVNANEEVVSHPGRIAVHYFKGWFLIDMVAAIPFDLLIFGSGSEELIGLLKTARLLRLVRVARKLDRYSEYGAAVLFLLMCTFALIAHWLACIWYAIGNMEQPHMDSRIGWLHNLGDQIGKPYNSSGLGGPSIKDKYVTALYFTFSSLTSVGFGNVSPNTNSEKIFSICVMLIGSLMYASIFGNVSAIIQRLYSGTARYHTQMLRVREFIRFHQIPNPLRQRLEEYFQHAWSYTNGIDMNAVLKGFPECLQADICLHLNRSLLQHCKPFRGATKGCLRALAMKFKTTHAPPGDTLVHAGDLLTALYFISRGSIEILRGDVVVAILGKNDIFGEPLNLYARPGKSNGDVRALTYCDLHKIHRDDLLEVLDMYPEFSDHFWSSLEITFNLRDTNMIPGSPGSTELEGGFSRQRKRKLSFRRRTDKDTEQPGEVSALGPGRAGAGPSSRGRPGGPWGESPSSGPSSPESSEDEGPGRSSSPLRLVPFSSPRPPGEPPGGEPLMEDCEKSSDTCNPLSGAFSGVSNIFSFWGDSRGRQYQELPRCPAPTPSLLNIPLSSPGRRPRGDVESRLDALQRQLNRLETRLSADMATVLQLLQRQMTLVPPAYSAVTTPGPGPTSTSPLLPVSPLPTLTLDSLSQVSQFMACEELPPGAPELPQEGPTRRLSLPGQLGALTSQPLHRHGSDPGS
[8] abbreviates: read-out: Thermodynamic Solubility Solubility.
Where [9] appears, read: read-out: Thermodynamic Solubility Solubility (um).

Converted amounts (≈) assume the structure as drawn. Where two headings read alike, the source gives them in different places.

T1 sequence (P33261 whole entry): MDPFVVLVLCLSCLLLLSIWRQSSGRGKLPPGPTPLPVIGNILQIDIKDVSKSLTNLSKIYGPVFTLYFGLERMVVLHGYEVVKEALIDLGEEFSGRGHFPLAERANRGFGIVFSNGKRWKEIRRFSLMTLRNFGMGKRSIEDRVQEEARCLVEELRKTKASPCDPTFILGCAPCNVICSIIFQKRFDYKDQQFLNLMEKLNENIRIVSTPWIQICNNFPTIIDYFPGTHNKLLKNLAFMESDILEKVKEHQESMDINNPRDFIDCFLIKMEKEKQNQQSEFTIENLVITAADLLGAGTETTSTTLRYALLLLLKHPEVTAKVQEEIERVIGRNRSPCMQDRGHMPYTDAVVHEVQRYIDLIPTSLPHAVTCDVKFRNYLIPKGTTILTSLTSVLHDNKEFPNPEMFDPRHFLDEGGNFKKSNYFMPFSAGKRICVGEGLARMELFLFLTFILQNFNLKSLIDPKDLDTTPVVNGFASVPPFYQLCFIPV

By IC50 is commonly meant the concentration needed to halve the response being measured. As usually defined, the CLint scaled is a measure of how fast metabolising enzymes remove a compound, apart from limits set by blood flow. A lower CLint scaled goes with greater metabolic stability. One may read the solubility as the dissolved amount per volume that the medium holds. For orientation: thermodynamic solubility means the concentration in solution at equilibrium with solid. For `CC(C)(NC(=O)[C@H]1[C@@H]2CNC[C@H]1C2)c1ncc2c(Cl)cccn12` [Compound 7, (1R,5S,6r)-N-(2-(8-chloroimidazo[1,5-a]pyridin-3-yl)propan-2-yl)-3-azabicyclo[3.1.1]heptane-6-carboxamide], the IC50 in data set [1] is greater than 10 µM. For the same compound, in data set [2], the CLint scaled at 1 μM turned out to be 18.4 mL/min/kg and the half-life at 1 μM was 2.25 h. Further, in data set [3], the “No. of writhing's” value is listed as 10, the “Percentage of Inhibition” value is listed as 69.16% and the “Significant compared to the model group” value is “Yes”. For the same compound, the solubility at 1 h in data set [4] was 101.75 ± 0.03 µM (≈ 33.9 µg/mL). In data set [5], this compound gave a CLint scaled at 1 μM of 5.4 mL/min/kg and a half-life at 1 μM of 10 h. The solubility (thermodynamic) in data set [6] (setting [8]) was 1680 µg/mL. The solubility (thermodynamic) in data set [6] (setting [9]) came out at 4440 µM.

As usually defined, the inhibition is the relative decrease from the control value, in per cent. As to `CC(C)(NC(=O)[C@H]1[C@@H]2CNC[C@H]1C2)c1ncc2c(Br)cccn12` [Compound 8, (1R,5S,6r)-N-(2-(8-bromoimidazo[1,5-a]pyridin-3-yl)propan-2-yl)-3-azabicyclo[3.1.1]heptane-6-carboxamide], in data set [7], the inhibition at 0.3 µM was -3.49%, the inhibition at 1 µM was -3.67%, the inhibition at 3 µM was -2.44% and the inhibition at 10 µM was -1.66%. Further, the inhibition at 30 µM in data set [7] is -0.15%. Further, in data set [1], the 50% inhibitory concentration (IC50) is greater than 10 µM. Moreover, in data set [2], the CLint scaled at 1 μM was 2.98 mL/min/kg and the half-life at 1 μM is 9.71 h. For the same compound, in data set [3], the “No. of writhing's” value was determined as 3, the “Percentage of Inhibition” value was 86.26% and the “Significant compared to the model group” value is reported as “Yes”. Moreover, the solubility at 1 h in data set [4] was 91.6 µM (≈ 34.6 µg/mL). In data set [5], this compound displayed a CLint scaled at 1 μM of 6.01 mL/min/kg and a half-life at 1 μM of 9 h. The thermodynamic solubility in data set [6] (setting [8]) amounted to 2080 µg/mL. Also, the thermodynamic solubility in data set [6] (setting [9]) is 4920 µM.

Take `CC(C)(NC(=O)[C@H]1[C@@H]2CNC[C@H]1C2)c1nc(C2CC2)c2ccccn12` [Compound 9, (1R,5S,6r)-N-(2-(1-cyclopropylimidazo[1,5-a]pyridin-3-yl)propan-2-yl)-3-azabicyclo[3.1.1]heptane-6-carboxamide]: in data set [1], the IC50 was greater than 10 µM. Besides, in data set [2], the CLint scaled at 1 μM is 1.73 mL/min/kg and the half-life at 1 μM worked out at 23.9 h. Also, in data set [3], the “No. of writhing's” value was found to be 8, the “Percentage of Inhibition” value was determined as 62.34% and the “Significant compared to the model group” value is given as “Yes”. For the same compound, the solubility at 1 h in data set [4] came out at 130.5 ± 0.02 µM (≈ 44.2 µg/mL). Also, in data set [6] (setting [8]), the solubility (thermodynamic) is 2250 µg/mL. The solubility (thermodynamic) in data set [6] (setting [9]) stood at 6000 µM.
